Measurements as given in patent US20110092445A1, “Amyloid ß peptide analogues, oligomers thereof, processes for preparing and composi-tions comprising said analogues or oligomers, and their uses” (Abbott Laboratories, priority 2008, published 2011).
Bridges are numbered along the chain shown (N, C = ends). Where no end group is shown, it is not given here. The star is where a group is joined. Acm = CC(=O)NC*

Experiments:
[1] = system: globulomer-specific antibodies (mAb 5F7, mAb 7C6, rabbit polyclonal antiserum 5599); test: Direct ELISA, response to globulomer-specific antibodies; format: binding; settings: for display of the globulomer epitope: oligomers before thermolysin truncation, 5F7, 7C6, antiserum 5599; for reactivity of cross-linked oligomers to the globulomer-specific antibodies: after intra-molecular cross-linking, FIGS. 14-16, 18; for change in affinity to the globulomer-specific antibodies upon truncation with thermolysin: after thermolysin truncation versus untruncated oligomer
Description: (§1) Materials: Microtiterplates were Nunc Immuno Plate, Maxi-Sorb Surface, flat bottom, (Catalogue #439454). The conjugate (secondary antibody) was Donkey anti-mouse HRPO conjugate, Jackson Immuno Research, (Catalogue #715-035-150). The HRPO Substrate was 3,3′,5′5′-Tetramethylbenzidine Liquid substrate (TMB), Sigma, (Catalogue #T4444). Non-fat Dry Milk (NFDM), was from BioRad, (Catalogue #170-6404). All other chemicals were from conventional sources.
(§2) Buffers and solutions: PBST buffer: Sigma PBS made with 0.05% Tween 20. PBST with 0.5% BSA was made by dissolving […] BSA in 100 mL PBST. Blocking solution was 3% NFDM in PBST. Conjugate diluent was 1% NFDM in PBST. The coating buffer was 100 mM NaHCO3 pH8.2. The HRPO Stop Solution was 2 M H2SO4.
(§3) Coating the plates: The Aβ globulomer to be tested was diluted to 1.0 μg/mL in coating buffer. 100 μL were added to each well to be coated. Plate was sealed with sealing film and left at 4° C. overnight.
(§4) Plate Blocking: The coating solution was removed from the wells. Each well was optionally washed 2-3× with 150 μL of PBST. 300 μL of blocking solution were added (3% NFDM in PBST). Plate was covered with plate sealing film and incubated for ˜2 hrs at room temperature, with agitation.
(§5) Primary Antibody: The blocking solution was removed from the wells. Each well was optionally washed 2-3× with 150 μL of PBST. 100 μL of primary antibody solutions were added. For the full length N-Met Aβ(1-42) globulomer, solutions of 0.04 to 100 μg/mL of antibody 5F7 were used. The antibody was diluted using PBST with 0.5% BSA. The plate was covered with plate sealing film and incubated for ˜2 to 3 hrs at room temperature with agitation.
Secondary Antibody (HRPO Conjugate): The primary antibody solution was removed from the wells. Each well was washed 2-3× with 150 μL of PBST. 200 μL of secondary antibody (HRPO conjugate) solution diluted 1:5000 in PBST with 1% NFDM were added. The plate was covered with plate sealing film and incubated for ˜1 hr at room temperature with agitation.
Substrate Development: The conjugate solution was removed from the wells. Each well was washed 2-3× with 200 μL of PBST. 100 μL of HRPO substrate solution were added to each well. Color was allowed to develop under observation. It turned blue. The reaction was usually done in 5-10 minutes at room temperature. 50 μL of stop solution were added to each well. The blue color turned yellow. Absorbance at 450 nm was read using a microtiterplate reader within 30 min of addition of the stop solution.

[2] = for homogeneity of oligomers in sedimentation velocity experiments / hydrodynamic properties relative to wild-type N-Met Aβ(1-42) (truncated) globulomer: FIG. 5A-5C; for hydrodynamic homogeneity after truncation at residue 20 by thermolysin: presence (FIG. 5B) and absence (FIG. 5C) of 0.05% SDS
Description: Samples were loaded into standard two-sector cells using sapphire windows. All samples were examined using either a 4-hole or an 8-hole rotor.
Conditions were as follows: temperature: 20° C., rotor speed: 42,000 rpm, interference data was collected, absorbance data was collected at 280 nm in continuous mode with a radial step size of 0.003 cm. One data point was collected per step (no signal averaging). Typically, 200 scans or less were collected over the course of no more than 9 hrs.
A continuous S distribution analysis (C(s) analysis) was done as implemented in Sedfit v8.9 (P. Schuck (2000), “Size distribution analysis of macromolecules by sedimentation velocity ultracentrifugation and Lamm equation modeling”, Biophysical Journal 78:1606-1619) to understand the overall heterogeneity of the samples. Both radial and time independent noise were fit and removed from the data using a maximal entropy algorithm.

[3] = system: globulomer-specific monoclonal antibody 5F7; test: Direct ELISA, binding of globulomer-specific mAb 5F7 to coated oligomer; set-up: species or system murine; settings: FIG. 3A; for binding of the globulomer-specific monoclonal antibody 5F7 (direct ELISA response): N-Met Aβ(1-42) globulomer compared with mutant oligomer
Description: as §1, §2, §3, §4, §5
Secondary Antibody (HRPO Conjugate): The primary antibody solution was removed from the wells. Each well was washed 2-3× with 150 μL of PBST. 200 μL of secondary antibody (HRPO conjugate) solution diluted 1:5000 in PBST with 1% NFDM were added. […]
Substrate Development: The conjugate solution was removed from the wells. […] Absorbance at 450 nm was read using a microtiterplate reader within 30 min of addition of the stop solution.

| Substance | display of the globulomer epitope [1] | change in affinity to the globulomer-specific antibodies upon truncation with thermolysin [1] | also measured |
| --- | --- | --- | --- |
| [(17C, 34C) Aβ(16-35)-amide, cyclic] oligomer (KCVFFAEDVGSNKGAIIGCM-NH2; disulfide 2-19; also: oligomer; UniProt P05067 687-706, looked up, variant L17C L34C) [example 4o] | displayed the globulomer epitope |  |  |
| SMCC-linked (17K, 34C) N-Met Aβ(1-42) oligomer [example 4w1] |  | expected increase in affinity | reactivity of cross-linked oligomers to the globulomer-specific antibodies [1]: still display the appropriate reactivity |
| Disulfide-stabilized (17C, 34C) Aβ(16-42) oligomer (KCVFFAEDVGSNKGAIIGCMVGGVVIA-OH; disulfide 2-19; also: oligomer; UniProt P05067 687-713, looked up, variant L17C L34C) [example 4s] | displayed the globulomer epitope |  |  |
| Thermolysin truncation of disulfide stabilized (17C, 34C) N-Met Aβ(1-42) oligomer [example 5y] |  |  | homogeneity of oligomers in sedimentation velocity experiments [2]: formed homogeneous oligomers; hydrodynamic properties relative to wild-type N-Met Aβ(1-42) (truncated) globulomer [2]: displayed better hydrodynamic properties; hydrodynamic homogeneity after truncation at residue 20 by thermolysin [2]: remains significantly more hydrodynamically homogeneous |
| Aβ(16-35)-amide oligomer (KLVFFAEDVGSNKGAIIGLM-NH2; also: oligomer; UniProt P05067 687-706, looked up, fragment) [example 3m] | not able to form oligomers that displayed the globulomer epitope |  |  |
| (17K, 34C) N-Met Aβ(1-42) oligomer [example 3w] | display the globulomer epitope |  |  |
| N-Met Aβ(1-42) globulomer [reference compound] |  |  | binding of the globulomer-specific monoclonal antibody 5F7 (direct ELISA response) [3]: almost identical; homogeneity of oligomers in sedimentation velocity experiments [2]: formed homogeneous oligomers; hydrodynamic homogeneity after truncation at residue 20 by thermolysin [2]: too heterogeneous to be examined |
| MBS-linked (17K, 34C) N-Met Aβ(1-42) oligomer [example 4w2] |  | expected increase in affinity | reactivity of cross-linked oligomers to the globulomer-specific antibodies [1]: still display the appropriate reactivity |
| (17K, 34E) N-Met Aβ(1-42) oligomer [example 3x] | display the globulomer epitope |  |  |
| EDC/NHS-linked (17K, 34E) N-Met Aβ(1-42) oligomer [example 4x] |  | expected increase in affinity | reactivity of cross-linked oligomers to the globulomer-specific antibodies [1]: still display the appropriate reactivity |
| Thermolysin truncation of disulfide stabilized (17C, 34C) Aβ(12-42) oligomer [example 5k] |  | expected increase in affinity |  |
| SIAB-linked (17K, 34C) N-Met Aβ(1-42) oligomer [example 4w3] |  | expected increase in affinity | reactivity of cross-linked oligomers to the globulomer-specific antibodies [1]: still display the appropriate reactivity |
| (17C(ACM), 34C(ACM)) Aβ(16-35) oligomer (KC(Acm)VFFAEDVGSNKGAIIGC(Acm)M; also: oligomer; UniProt P05067 687-706, looked up, variant L17C L34C) [3l] | not able to form oligomers that displayed the globulomer epitope |  |  |
| Thermolysin truncation of disulfide stabilized (17C, 34C) Aβ(16-42) oligomer [example 5s] |  | expected increase in affinity |  |
| Disulfide-stabilized (17C, 34C) Aβ(12-42) oligomer (VHHQKCVFFAEDVGSNKGAIIGCMVGGVVIA; disulfide 6-23; also: oligomer; UniProt P05067 683-713, looked up, variant L17C L34C) [example 4k] | displayed the globulomer epitope |  |  |
| Thermolysin truncation of [(17C, 34C) Aβ(16-35)-amide, cyclic] oligomer [example 5o] |  | expected increase in affinity |  |
| Dissulfide stabilized (17C, 34C) N-Met Aβ(1-42) oligomer [example 2a] |  |  | binding of the globulomer-specific monoclonal antibody 5F7 (direct ELISA response) [3]: almost identical; display of the globulomer-specific epitope ([3]; mAb 5F7): still displays the globulomer-specific epitope; homogeneity of oligomers in sedimentation velocity experiments [2]: formed homogeneous oligomers; hydrodynamic properties relative to wild-type N-Met Aβ(1-42) (truncated) globulomer [2]: displayed better hydrodynamic properties |
